The first experiment addresses human NaV 1.8 (Homo sapiens, UniProt Q9Y5Y9). Briefly: E-VIPR assay detecting and measuring NaV inhibition properties. In kind it is cell-based. Particulars: HEK cells expressing truncated human NaV 1.8; in the presence of human serum (compound numbers followed by *); read-out: IC50 in the E-VIPR Assay, performed in the presence of human serum. An outline of the steps:
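Membrane potential was followed by coumarin/oxonol FRET during electrical field stimulation of matrigel-seeded HEK cells carrying truncated human NaV1.8 plus KIR2.1. Dosing used 11 points, 3-fold steps, top 300 nM final, 0.625% DMSO, with or without 25% human serum.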
human NaV 1.8, sequence (Q9Y5Y9 126-399 limits assumed): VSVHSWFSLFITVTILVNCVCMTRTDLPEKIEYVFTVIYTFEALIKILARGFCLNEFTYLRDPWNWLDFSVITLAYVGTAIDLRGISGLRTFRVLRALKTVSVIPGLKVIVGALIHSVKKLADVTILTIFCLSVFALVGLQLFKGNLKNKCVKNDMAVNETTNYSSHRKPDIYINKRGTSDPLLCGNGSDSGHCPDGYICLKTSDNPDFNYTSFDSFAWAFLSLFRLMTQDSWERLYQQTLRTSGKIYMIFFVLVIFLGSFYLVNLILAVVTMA
human NaV 1.8, sequence (Q9Y5Y9 660-890 limits assumed): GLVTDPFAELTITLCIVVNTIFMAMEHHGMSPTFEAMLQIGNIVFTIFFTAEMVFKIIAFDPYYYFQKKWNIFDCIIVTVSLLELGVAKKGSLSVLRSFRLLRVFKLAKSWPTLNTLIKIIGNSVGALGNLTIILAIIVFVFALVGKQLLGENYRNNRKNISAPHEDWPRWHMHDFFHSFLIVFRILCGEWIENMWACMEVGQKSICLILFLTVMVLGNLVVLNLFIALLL
human NaV 1.8, sequence (Q9Y5Y9 1148-1722 limits assumed): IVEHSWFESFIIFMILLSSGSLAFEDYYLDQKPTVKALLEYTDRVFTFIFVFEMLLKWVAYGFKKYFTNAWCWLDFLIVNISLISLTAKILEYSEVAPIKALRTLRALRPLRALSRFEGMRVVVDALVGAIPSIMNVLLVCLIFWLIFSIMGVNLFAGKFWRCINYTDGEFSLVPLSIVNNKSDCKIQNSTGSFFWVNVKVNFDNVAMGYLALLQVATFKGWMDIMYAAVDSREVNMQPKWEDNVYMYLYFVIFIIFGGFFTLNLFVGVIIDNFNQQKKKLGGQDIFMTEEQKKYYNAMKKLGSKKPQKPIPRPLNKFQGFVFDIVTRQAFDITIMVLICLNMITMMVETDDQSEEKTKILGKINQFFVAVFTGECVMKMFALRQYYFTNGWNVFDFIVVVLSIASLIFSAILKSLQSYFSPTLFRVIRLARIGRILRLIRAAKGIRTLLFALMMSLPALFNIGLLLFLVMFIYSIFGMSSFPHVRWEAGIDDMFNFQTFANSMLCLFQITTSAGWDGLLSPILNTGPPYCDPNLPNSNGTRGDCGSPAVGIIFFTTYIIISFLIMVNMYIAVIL
With `COc1c([C@@H]2[C@@H](C(=O)Nc3ccnc(C(O)CO)c3)O[C@](C)(C(F)(F)F)[C@@H]2C)ccc(F)c1C` (single isomer, unassigned) [Compound 136], the IC50 (as a rule, the concentration that gives 50% inhibition) is at least 1 µM.
Same read-out and setting: under `COc1c([C@H]2[C@H](C(=O)Nc3ccc4nc[nH]c4c3)O[C@@](C)(C(F)(F)F)[C@H]2C)ccc(F)c1F` [Compound 212, (2R,3S,4S,5R)-N-(1H-benzo[d]imidazol-6-yl)-3-(3,4-difluoro-2-methoxyphenyl)-4,5-dimethyl-5-(trifluoromethyl)tetrahydrofuran-2-carboxamide] stands 0.1 to 1 µM; under `COc1c([C@@H]2[C@@H](C(=O)Nc3ccnc([S+](C)[O-])c3)O[C@](C)(C(F)(F)F)[C@@H]2C)ccc(F)c1F` (single isomer, unassigned) [Compound 6], at least 1 µM.

Still in this experiment, the particulars now being: HEK cells expressing truncated human NaV 1.8; no human serum; read-out: IC50 in the E-VIPR Assay.
For the compound `C[C@H]1[C@@H](c2ccc(F)c(F)c2OC(F)F)[C@H](C(=O)Nc2ccc(=O)n(C)c2)O[C@@]1(C)C(F)(F)F` (single isomer, unassigned) [Compound 68], the 50% inhibitory concentration (IC50) was 0.01 to 0.1 µM.
Still for that read-out and setting: in the case of `COc1c(C2C(C(=O)Nc3ccnc(CO)c3)OC(C)(C(F)(F)F)C2C)ccc(F)c1F` (stereo not drawn) [Compound 61, 3-(3,4-difluoro-2-methoxy-phenyl)-N-[2-(hydroxymethyl)-4-pyridyl]-4,5-dimethyl-5-(trifluoromethyl)tetrahydrofuran-2-carboxamide] it was at least 1 µM; in that of `COC1CN(CCOc2c([C@H]3[C@H](C(=O)Nc4conc4C)O[C@@](C)(C(F)(F)F)[C@H]3C)ccc(F)c2F)C1` [Compound 627, (2R,3S,4S,5R)-3-(3,4-difluoro-2-(2-(3-methoxyazetidin-1-yl)ethoxy)phenyl)-4,5-dimethyl-N-(3-methylisoxazol-4-yl)-5-(trifluoromethyl)tetrahydrofuran-2-carboxamide], 0.01 to 0.1 µM; in that of `COc1c(C2C(C(=O)Nc3ccc(C(N)=O)nc3)OC(C)(C(F)(F)F)C2C)ccc(C(F)F)c1F` (stereo not drawn) [Compound 159, 5-[[3-[4-(difluoromethyl)-3-fluoro-2-methoxy-phenyl]-4,5-dimethyl-5-(trifluoromethyl)tetrahydrofuran-2-carbonyl]amino]pyridine-2-carboxamide], at least 1 µM.
On the same count and under the same terms, in the case of `CCOc1c(C2C(C(=O)Nc3ccnc(S(C)(=N)=O)c3)OC(C)(C(F)(F)F)C2C)ccc(F)c1F` (single isomer, unassigned) [Compound 109, 3-(2-ethoxy-3,4-difluoro-phenyl)-4,5-dimethyl-N-[2-(methylsulfonimidoyl)-4-pyridyl]-5-(trifluoromethyl)tetrahydrofuran-2-carboxamide] it was 0.1 to 1 µM; in that of `COc1c([C@H]2[C@H](C(=O)Nc3cnn(C4COC4)c3C)O[C@@](C)(C(F)(F)F)[C@H]2C)ccc(F)c1F` (single isomer, unassigned) [Compound 331], 0.01 to 0.1 µM.
`COc1c([C@H]2[C@H](C(=O)Nc3ccc(C(F)CO)nc3)O[C@@](C)(C(F)(F)F)[C@H]2C)ccc(F)c1F` (single isomer, unassigned) [Compound 438, rel-(2R*,3S*,4S*,5R*)-3-(3,4-difluoro-2-methoxyphenyl)-N-(6-(1-fluoro-2-hydroxyethyl)pyridin-3-yl)-4,5-dimethyl-5-(trifluoromethyl)tetrahydrofuran-2-carboxamide]: the IC50 lay within 0.01 to 0.1 µM.
With `COc1c([C@H]2[C@H](C(=O)NCCc3c(C)n[nH]c3C)O[C@@](C)(C(F)(F)F)[C@H]2C)ccc(F)c1F` [Compound 285, (2R,3S,4S,5R)-3-(3,4-difluoro-2-methoxyphenyl)-N-(2-(3,5-dimethyl-1H-pyrazol-4-yl)ethyl)-4,5-dimethyl-5-(trifluoromethyl)tetrahydrofuran-2-carboxamide], the IC50 was at least 1 µM.
`C[C@H]1[C@@H](c2ccc(F)c(F)c2OC(F)F)[C@H](C(=O)Nc2ccnc(S(C)(=O)=O)c2)O[C@@]1(C)C(F)(F)F` (single isomer, unassigned) [Compound 85]: the IC50 was under 0.01 µM.
With `[2H]C([2H])([2H])Oc1c([C@H]2[C@H](C(=O)Nc3ccnc(N4CCN(C)CC4=O)c3)O[C@@](C)(C(F)(F)F)[C@H]2C)ccc(F)c1F` [Compound 518, (2R,3S,4S,5R)-3-(3,4-difluoro-2-(methoxy-d3)phenyl)-4,5-dimethyl-N-(2-(4-methyl-2-oxopiperazin-1-yl)pyridin-4-yl)-5-(trifluoromethyl)tetrahydrofuran-2-carboxamide], the 50% inhibitory concentration (IC50) was under 0.01 µM.
Take `COc1c([C@H]2[C@H](C(=O)Nc3cc(C(O)CN(C)C)ncc3F)O[C@@](C)(C(F)(F)F)[C@H]2C)ccc(F)c1F` (single isomer, unassigned) [Compound 370, rel-(2R*,3S*,4S*,5R*)-3-(3,4-difluoro-2-methoxyphenyl)-N-(2-(2-(dimethylamino)-1-hydroxyethyl)-5-fluoropyridin-4-yl)-4,5-dimethyl-5-(trifluoromethyl)tetrahydrofuran-2-carboxamide]: the half-maximal inhibitory concentration (IC50) is under 0.01 µM.
As for `COc1c([C@H]2[C@H](C(=O)Nc3ccnc(N4C(=O)CN(C)C[C@H]4C)c3)O[C@@](C)(C(F)(F)F)[C@H]2C)ccc(F)c1F` [Compound 465, (2R,3S,4S,5R)-3-(3,4-difluoro-2-methoxyphenyl)-N-(2-((R)-2,4-dimethyl-6-oxopiperazin-1-yl)pyridin-4-yl)-4,5-dimethyl-5-(trifluoromethyl)tetrahydrofuran-2-carboxamide], the half-inhibitory concentration (IC50) was under 0.01 µM.
Take `Cc1nocc1NC(=O)[C@@H]1O[C@@](C)(C(F)(F)F)[C@@H](C)[C@H]1c1ccc(F)c(F)c1OCCO` [Compound 558, (2R,3S,4S,5R)-3-(3,4-difluoro-2-(2-hydroxyethoxy)phenyl)-4,5-dimethyl-N-(3-methylisoxazol-4-yl)-5-(trifluoromethyl)tetrahydrofuran-2-carboxamide]: the half-maximal inhibitory concentration (IC50) was under 0.01 µM.
Turning to `COc1c([C@H]2[C@H](C(=O)NC3CCCCNC3=O)O[C@@](C)(C(F)(F)F)[C@H]2C)ccc(F)c1F` (stereo partly drawn) [Compound 299, (2R,3S,4S,5R)-3-(3,4-difluoro-2-methoxyphenyl)-4,5-dimethyl-N-(2-oxoazepan-3-yl)-5-(trifluoromethyl)tetrahydrofuran-2-carboxamide], the half-inhibitory concentration (IC50) is at least 1 µM.
As for `CCOc1c([C@H]2[C@H](C(=O)Nc3ccnc(S(C)(=O)=NC)c3)O[C@@](C)(C(F)(F)F)[C@H]2C)ccc(F)c1C` (single isomer, unassigned) [Compound 130], the 50% inhibitory concentration (IC50) was under 0.01 µM.
As to `COc1c(C2C(C(=O)Nc3ccnc(S(C)(=N)=O)c3)OC(C)(C(F)(F)F)C2C)ccc(F)c1F` (single isomer, unassigned) [Compound 53, 3-(3,4-difluoro-2-methoxy-phenyl)-4,5-dimethyl-N-[2-(methylsulfonimidoyl)-4-pyridyl]-5-(trifluoromethyl)tetrahydrofuran-2-carboxamide], the concentration for half-maximal inhibition (IC50) was in the range of 0.1 to 1 µM.
As for `COc1c([C@H]2[C@H](C(=O)Nc3ccc(C(F)F)nc3)O[C@@](C)(C(F)(F)F)[C@H]2C)ccc(F)c1C(F)F` (single isomer, unassigned) [Compound 165], the IC50 lay in the range of 0.01 to 0.1 µM.
As to `COCc1cc(C)nc(NC(=O)[C@@H]2O[C@@](C)(C(F)(F)F)[C@@H](C)[C@H]2c2ccc(F)c(F)c2OCCO)n1` [Compound 562, (2R,3S,4S,5R)-3-(3,4-difluoro-2-(2-hydroxyethoxy)phenyl)-N-(4-(methoxymethyl)-6-methylpyrimidin-2-yl)-4,5-dimethyl-5-(trifluoromethyl)tetrahydrofuran-2-carboxamide], the concentration for half-maximal inhibition (IC50) was at least 1 µM.
As to `COc1c([C@H]2[C@H](C(=O)NCC3CN(C)C(=O)CO3)O[C@@](C)(C(F)(F)F)[C@H]2C)ccc(F)c1F` (stereo partly drawn) [Compound 290, (2R,3S,4S,5R)-3-(3,4-difluoro-2-methoxyphenyl)-4,5-dimethyl-N-((4-methyl-5-oxomorpholin-2-yl)methyl)-5-(trifluoromethyl)tetrahydrofuran-2-carboxamide], the IC50 is at least 1 µM.
On the same count and under the same terms, under `C[C@H]1[C@@H](c2ccc(F)c(F)c2OCCO)[C@H](C(=O)Nc2ccnc(C(C)(C)O)c2)O[C@@]1(C)C(F)(F)F` [Compound 540, (2R,3S,4S,5R)-3-(3,4-difluoro-2-(2-hydroxyethoxy)phenyl)-N-(2-(2-hydroxypropan-2-yl)pyridin-4-yl)-4,5-dimethyl-5-(trifluoromethyl)tetrahydrofuran-2-carboxamide] stands under 0.01 µM.
On the same count and under the same terms, in the case of `COc1c([C@H]2[C@H](C(=O)Nc3ccnc(N(C)C)c3)O[C@@](C)(C(F)(F)F)[C@H]2C)ccc(F)c1F` [Compound 320, (2R,3S,4S,5R)-3-(3,4-difluoro-2-methoxyphenyl)-N-(2-(dimethylamino)-pyridin-4-yl)-4,5-dimethyl-5-(trifluoromethyl)-tetrahydrofuran-2-carboxamide] it was 0.01 to 0.1 µM; in that of `COc1c([C@H]2[C@H](C(=O)Nc3cnc(CCO)nc3)O[C@@](C)(C(F)(F)F)[C@H]2C)ccc(F)c1F` [Compound 237, (2R,3S,4S,5R)-3-(3,4-difluoro-2-methoxyphenyl)-N-(2-(2-hydroxyethyl)pyrimidin-5-yl)-4,5-dimethyl-5-(trifluoromethyl)tetrahydrofuran-2-carboxamide], 0.01 to 0.1 µM; in that of `COc1c([C@H]2[C@H](C(=O)Nc3cnc(C(F)CO)nc3)O[C@@](C)(C(F)(F)F)[C@H]2C)ccc(F)c1F` (stereo partly drawn) [Compound 446, (2R,3S,4S,5R)-3-(3,4-difluoro-2-methoxy-phenyl)-N-[2-(1-fluoro-2-hydroxy-ethyl)pyrimidin-5-yl]-4,5-dimethyl-5-(trifluoromethyl)tetrahydrofuran-2-carboxamide], 0.01 to 0.1 µM.
Take `COc1c([C@H]2[C@H](C(=O)NCc3cc(C(N)=O)co3)O[C@@](C)(C(F)(F)F)[C@H]2C)ccc(F)c1F` [Compound 286, 5-(((2R,3S,4S,5R)-3-(3,4-difluoro-2-methoxyphenyl)-4,5-dimethyl-5-(trifluoromethyl)tetrahydrofuran-2-carboxamido)methyl)furan-3-carboxamide]: the 50% inhibitory concentration (IC50) was at least 1 µM.

These data come from patent publication US20240368135A1 (VERTEX PHARMACEUTICALS INCORPORATED, priority 2021, published 2024).
